Laboratory results published in patent publication US20070167412A1, “HALOCOMBSTATINS AND METHODS OF SYNTHESIS THEREOF” (ARIZONA BOARD OF REGENTS, priority 2003, published 2007).

What was measured:
Assay type in all cases: cell-based
[1] = system: Breast MCF-7; assay: human cancer cell growth inhibition, sulforhodamine B assay; settings: 48 hours; for Human cancer cell line inhibition (GI50) Breast adn MCF-7: Table I; for human cancer cell line growth inhibition (GI50) Breast MCF-7: Table Ia
Protocol: (§1) Inhibition of human cancer cell growth was assessed using the National Cancer Institute's standard sulforhodamine B assay. After 48 hours, the plates were fixed with trichloracetic acid, stained with sulforhodamine B and read with an automated microplate reader. […] Inhibition of the mouse leukemia P388 cells was assessed in a 10% horse serum/Fisher medium soution for 24 hours, followed by a 48 hour incubation with serial dilutions of the compounds. Cell growth inhibition (ED50) was then calculated using a Z1 Becleman/Coulter particle counter.

[2] = system: CNS SF268; assay: as above; settings: 48 hours; for Human cancer cell line inhibition (GI50) CNS SF268: Table I; for human cancer cell line growth inhibition (GI50) CNS SF268: Table Ia
Protocol: as §1

[3] = system: Colon KM20L2; assay: as above; settings: 48 hours; for Human cancer cell line inhibition (GI50) Colon KM20L2: Table I; for human cancer cell line growth inhibition (GI50) Colon KM20L2: Table Ia
Protocol: as §1

[4] = system: Lung-NSC NCI-H460; assay: as above; settings: 48 hours; for Human cancer cell line inhibition (GI50) Lung-NSC NCI-H460: Table I; for human cancer cell line growth inhibition (GI50) Lung-NSC NCI-H460: Table Ia
Protocol: as §1

[5] = system: Pancreas BXPC-3; assay: as above; settings: 48 hours; for Human cancer cell line inhibition (GI50) Pancreas-a BXPC-3: Table I; for human cancer cell line growth inhibition (GI50) Pancreas BXPC-3: Table Ia
Protocol: as §1

[6] = system: Prostate DU-145; assay: as above; settings: 48 hours; for Human cancer cell line inhibition (GI50) Prostate DU-145: Table I; for human cancer cell line growth inhibition (GI50) Prostate DU-145: Table Ia
Protocol: as §1

[7] = system: Candida albicans; assay: reference broth microdilution susceptibility assay
Excerpt: (§2) The halocombstatins of the present invention appear to also have antimicrobial properties. More specifically, they appear to have antifungal and/or antibacterial properties. Antimicrobial evaluation of the halocombstatins involved susceptibility testing performed by the reference broth microdilution assay. The antimicrobial activities of the halocombstatins were very similar, targeting Gram-positive bacteria and the pathogenic fungi Cryptococcus neoformans, and results are shown in Table III.
(§3) (See Pettit, G. R., et al., Antineoplastic Agents 463. Synthesis of Combretastatin A-3 Diphosphates, Anticancer Drug Design 2000, 15, 397-404.) To determine the antimicrobial activity of the present compounds, susceptibility testing was performed by the reference broth microdilution assay. (See National Committee for Clinical Laboratory Standards. Methods for Dilution Antimicrobial Susceptibility Tests for Bacteria that Grow Aerobically. Approved Standard M7-A5. Wayne, P A: NCCLS, 2000. National Committee for Clinical Laboratory Standards. Reference Method for Broth Dilution Antifungal Susceptibility Testing of Yeasts. Aproved Standard M27-A. Wayne, P A: NCCLS, 1997.) The antimicrobial activities of the halocombretastatins of the present invention were very similar, targeting Gram-positive bacteria and Cryptococcus neoformans. This is illustrated in further detail in Table III. Thus, several of the novel compounds of the present invention appear to have potential as antimicrobial agents, such as antifingals and antibacterials.

[8] = system: Cryptococcus neoformans; assay: reference broth microdilution susceptibility assay
Excerpt: as §2, §3

[9] = system: Enterobacter cloacae; assay: reference broth microdilution susceptibility assay
Excerpt: as §2, §3

[10] = system: Enterococcus faecalis; assay: reference broth microdilution susceptibility assay
Excerpt: as §2, §3

[11] = system: Escherichia coli; assay: reference broth microdilution susceptibility assay
Excerpt: as §2, §3

[12] = system: Micrococcus luteus; assay: reference broth microdilution susceptibility assay
Excerpt: as §2, §3

[13] = system: Neisseria gonorrhoeae; assay: reference broth microdilution susceptibility assay
Excerpt: as §2, §3

[14] = system: Staphylococcus aureus; assay: reference broth microdilution susceptibility assay
Excerpt: as §2, §3

[15] = system: Stenotrophomonas maltophilia; assay: reference broth microdilution susceptibility assay
Excerpt: as §2, §3

[16] = system: Streptococcus pneumoniae; assay: reference broth microdilution susceptibility assay
Excerpt: as §2, §3

Compound	Human cancer cell line inhibition (GI50) Breast adn MCF-7 [1] [µg/mL]	Human cancer cell line inhibition (GI50) CNS SF268 [2] [µg/mL]	Human cancer cell line inhibition (GI50) Colon KM20L2 [3] [µg/mL]	Human cancer cell line inhibition (GI50) Lung-NSC NCI-H460 [4] [µg/mL]	Human cancer cell line inhibition (GI50) Pancreas-a BXPC-3 [5] [µg/mL]	Human cancer cell line inhibition (GI50) Prostate DU-145 [6] [µg/mL]	human cancer cell line growth inhibition (GI50) Breast MCF-7 [1] [µg/mL]	human cancer cell line growth inhibition (GI50) CNS SF268 [2] [µg/mL]	human cancer cell line growth inhibition (GI50) Colon KM20L2 [3] [µg/mL]	human cancer cell line growth inhibition (GI50) Lung-NSC NCI-H460 [4] [µg/mL]	human cancer cell line growth inhibition (GI50) Pancreas BXPC-3 [5] [µg/mL]	human cancer cell line growth inhibition (GI50) Prostate DU-145 [6] [µg/mL]	further results
3-Brombo-4,4′,5-trimethoxy-3′-hydroxy-E-stilbene [Compound 13b]	0.14	0.18	1.2	0.15	1.6	0.13							Range of minimum inhibitory concentration, Candida albicans ([7]; Table III): * (no inhibition at 64 μg/ml); Range of minimum inhibitory concentration, Cryptococcus neoformans ([8]; Table III): * (no inhibition at 64 μg/ml); Range of minimum inhibitory concentration, Enterobacter cloacae ([9]; Table III): * (no inhibition at 64 μg/ml); Range of minimum inhibitory concentration, Enterococcus faecalis ([10]; Table III): * (no inhibition at 64 μg/ml); Range of minimum inhibitory concentration, Escherichia coli ([11]; Table III): * (no inhibition at 64 μg/ml); Range of minimum inhibitory concentration, Micrococcus luteus ([12]; Table III): * (no inhibition at 64 μg/ml); Range of minimum inhibitory concentration, Neisseria gonorrhoeae ([13]; Table III): * (no inhibition at 64 μg/ml); Range of minimum inhibitory concentration, Staphylococcus aureus ([14]; Table III): * (no inhibition at 64 μg/ml); Range of minimum inhibitory concentration, Stenotrophomonas maltophilia ([15]; Table III): * (no inhibition at 64 μg/ml); Range of minimum inhibitory concentration, Streptococcus pneumoniae ([16]; Table III): * (no inhibition at 64 μg/ml)
COc1ccc(/C=C\c2cc(I)c(OC)c(I)c2)cc1OP(=O)([O-])[O-].[Na+].[Na+] [Compound 0]													Range of MIC, Candida albicans ([7]; Table VII, ATCC 90028): * (no inhibition at 64 μg/ml); Range of MIC, Cryptococcus neoformans ([8]; Table VII, ATCC 90112): * (no inhibition at 64 μg/ml); Range of MIC, Enterobacter cloacae ([9]; Table VII, ATCC 13047): * (no inhibition at 64 μg/ml); Range of MIC, Enterococcus faecalis ([10]; Table VII, ATCC 29212): * (no inhibition at 64 μg/ml); Range of MIC, Escherichia coli ([11]; Table VII, ATCC 25922): * (no inhibition at 64 μg/ml); Range of MIC, Micrococcus luteus ([12]; Table VII, Presque Isle 456): * (no inhibition at 64 μg/ml); Range of MIC, Neisseria gonorrhoeae ([13]; Table VII, ATCC 49226): 32 to 64 µg/mL; Range of MIC, Staphylococcus aureus ([14]; Table VII, ATCC 29213): * (no inhibition at 64 μg/ml); Range of MIC, Stenotrophomonas maltophilia ([15]; Table VII, ATCC 13637): * (no inhibition at 64 μg/ml); Range of MIC, Streptococcus pneumoniae ([16]; Table VII, ATCC 6303): * (no inhibition at 64 μg/ml)
C1COCCN1.C1COCCN1.COc1ccc(/C=C\c2cc(I)c(OC)c(I)c2)cc1OP(=O)(O)O [V]							0.066	0.054	>1	0.033	0.35	0.028	
C1CCNCC1.C1CCNCC1.COc1ccc(/C=C\c2cc(I)c(OC)c(I)c2)cc1OP(=O)(O)O [W]							0.070	0.041	>1	0.025	0.33	0.025	
COC(=O)CN.COC(=O)CN.COc1ccc(/C=C\c2cc(I)c(OC)c(I)c2)cc1OP(=O)(O)O [X]							0.10	0.054	>1	0.030	0.36	0.023	
COC(=O)C(N)Cc1c[nH]c2ccccc12.COC(=O)C(N)Cc1c[nH]c2ccccc12.COc1ccc(C=Cc2cc(I)c(OC)c(I)c2)cc1OP(=O)(O)O [Y]							0.22	0.086	>1	0.033	0.37	0.026	
COc1ccc(/C=C\c2cc(I)c(OC)c(I)c2)cc1OP(=O)(O)O.NC(CO)(CO)CO.NC(CO)(CO)CO [Z]							0.047	0.040	0.94	0.025	0.33	0.021	
Calcium 3-bromo-4,4′,5-trimethoxy-Z-stilbene 3′-O-phosphate [Compound 19f]	0.0022	0.0022	0.37	0.0068	<0.001	0.0063							
Cesium 3-bromo-4,4′,5-trimethoiy-phenyl-Z-stilbene 3′-O-phosphate [Compound 19d]	0.0044	0.0064	0.48	0.0066	0.15	0.0079							
Lithium 3-bromo-4,4′,5-trbnethoxy-Z-stilbene 3′-O-phosphate [Compound 19b]	0.0039	0.0030	0.11	0.0026	0.13	0.0066							
Magnesium 3-bromg-4,4′,5-trimethoxy-Z-stilbene 3′-O-phosphate [Compound 19g]	0.0045	0.0053	0.27	0.0039	0.074	0.0045							
Potassium 3-bromo-4,4′,5-trimethoxy-Z-stilbene 3′-O-phosphate [Compound 19c]	0.0035	0.0032	0.24	0.0029	0.20	0.0028							
Rubidium 3-bromo-4,4′,5-trimetboxy-Z-stilbene 3′-O-phosphate [Compound 19e]	0.043	0.023	2.6	0.041	0.56	0.042							
Sodium 3-bromo-4,4′,-5-trimethoxy-Z-stilbene 3′-O-phosphate [Compound 19a]	0.0041	0.0034	0.23	0.0028	0.093	0.0046							
sodium combretastatin A-4 phosphate [Compound 1b, reference compound]		0.036	0.034	0.029									
